# Laboratory results as given in US12281121B2, “N-containing heteroaryl derivative and pharmaceutical composition comprising same as active ingredient for prevention or treatment of cancer” (VORONOI Inc., priority 2019, dated 2025).
# Assays:
# [1] = test system: Ba/F3 KIF5B-RET (WT) cells; assay: Cell proliferation inhibition, CellTiter-Glo; assay type: cell-based; conditions: Mus musculus, BaF3, 72 hours
# Method: (§1) Among lung cancer cell lines, which express RET fusion genes, LC-2/ad cells were cultured after adding 10% FBS (HyClone) to RPMI:F12 (1:1) (Invitrogen), and F-12 (Invitrogen) supplemented with 10% FBS was used for TT cells. RPMI-1640 supplemented with 10% FBS and 5 ng/ml IL-3 (R&D Systems) was used for Ba/F3 cells. Transduced Ba/F3 cells were cultured by adding 1 ug/ml puromycin (Invitrogen) to the same medium. 24 hours before cells were treated with the compound, 3000 to 5000 cells were aliquoted into each well of a white clear bottom 96 well plate (Corning). The compound was diluted in DMSO (3-fold dilution, a total of 12 concentrations) and the compound was injected by 0.5 μl such that the final concentration was 0.3 nM to 50 μM. For the measurement of living cells, 72 hours after the compound treatment, the cells were stored at room temperature for 10 minutes using a CellTiter-Glo luminescent cell-viability agent (Promega), and then the luminescence intensity was measured using a reader (SynergyNeo, Biotek). Each experiment was repeated in triplicate. The result value was calculated by the cell growth ratio (%) compared to the control. A graph was drawn using the GraphPad Prism version 5.0 program, and a GI50 (nM) value was calculated.
# (§2) In the cell assay column, LC-2/ad (with CCDC6-RET gene) is a lung cancer cell line, a TT cell line ([…]) is a thyroid cancer cell line, Ba/F3 CCDC6-RET (WT), Ba/F3 KIF5B-RET (WT), and Ba/F3 KIF5B-RET (V804M) are cells in which disease-related traits (CCDC6-RET, KIF5B-RET, and KIF5B-RET (V804M)) are introduced into Ba/F3 cells, and Ba/F3 (naive) is a cell which is not transduced.
# [2] = test system: Ba/F3 CCDC6-RET (WT) cells; assay: Cell proliferation inhibition, CellTiter-Glo; assay type: cell-based; conditions: BaF3/CCDC6-RET, 72 hours
# Method: as §1, §2
# [3] = test system: Ba/F3 KIF5B-RET (V804M) cells; assay: Cell proliferation inhibition, CellTiter-Glo; assay type: cell-based; conditions: Mus musculus, BaF3, 72 hours
# Method: as §1, §2
# [4] = test system: Ba/F3 (naive) cells; assay: Cell proliferation inhibition, CellTiter-Glo; assay type: cell-based; conditions: Mus musculus, BaF3; Ba/F3 not transduced, 72 hours
# Method: as §1, §2
# [5] = target: T1, RET (WT) (Homo sapiens, UniProt P07949); assay: RET enzyme inhibitory ability, ADP-Glo kinase assay; assay type: biochemical; conditions: ATP 10 μM, 25° C., 1 hour
# T1 construct: human RET (658-end, SIGNALCHEM); purchased SIGNALCHEM
# T1 sequence (P07949 658-1114 limits assumed): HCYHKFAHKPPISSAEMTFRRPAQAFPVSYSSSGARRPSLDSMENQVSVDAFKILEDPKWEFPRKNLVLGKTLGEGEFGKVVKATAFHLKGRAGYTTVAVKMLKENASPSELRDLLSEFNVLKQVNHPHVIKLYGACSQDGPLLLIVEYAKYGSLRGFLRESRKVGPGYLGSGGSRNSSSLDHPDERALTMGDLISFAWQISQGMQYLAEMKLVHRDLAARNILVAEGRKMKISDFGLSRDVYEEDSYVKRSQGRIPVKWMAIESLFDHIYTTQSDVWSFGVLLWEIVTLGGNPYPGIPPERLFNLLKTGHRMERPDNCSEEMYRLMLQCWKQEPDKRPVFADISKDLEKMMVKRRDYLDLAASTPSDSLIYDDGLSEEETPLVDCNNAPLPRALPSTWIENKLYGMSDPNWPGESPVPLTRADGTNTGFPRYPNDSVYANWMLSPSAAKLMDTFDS
# Method: The Example compound was reacted with a purified human RET (658-end, SIGNALCHEM) enzyme to evaluate the enzyme inhibitory ability by the following method. As a reaction buffer, a composition of 40 mM Tris-HCl pH 7.4, 20 mM MgCl2, 0.5 mg/mL BSA, and 50 μM DTT was used, and all experimental materials were reacted on the reaction buffer. After the human RET (658-end, 0.8 ng) enzyme was reacted with purified ATP (10 μM) and a specific substrate solution at 25° C. for 1 hour during the experiment, the enzyme activity was confirmed using in vitro ADP-Glo™ kinase assay (Promega). Luminescence was measured by reacting the enzyme activity reaction solution, the ADP-Glo reaction solution, and the enzyme activity detection solution at a ratio of 2:2:1. The degree of inhibition of enzyme activity according to the treatment concentration of each compound was calculated based on the […] of the enzyme activity of a solvent control group in which a compound was not treated, and in this case, the concentration of each compound which suppresses the […] enzyme activity by 50% was determined as an IC50 (nM) value. The IC50 (nM) of each compound was determined by 3 datasets and obtained using Prism (version 7.01, GraphPad) software.
# In the enzyme assay column, RET (WT) is a non-mutated form, RET (V804M) is a mutated form in which the V amino acid at position 804 of the RET is substituted with M, and CCDC6-RET is a form in which the RET (WT) gene and CCDC6 gene are fused.
Structure (SMILES),GI50 [1] [nM],GI50 [2] [nM],GI50 [3] [nM],GI50 [4] [nM],IC50 [5] [nM]
"Cc1cc(Nc2nc(-c3ccc(N4CC5CC(C4)N5Cc4ncc(C)s4)nc3)nc3ccccc23)n[nH]1 [Example 5, N-(5-methyl-1H-pyrazol-3-yl)-2-(6-(6-((5-methylthiazol-2-yl)methyl)-3,6-diazabicyclo [3.1.1]heptan-3-yl)pyridin-3-yl)quinazolin-4-amine]",7,41,4,1060,18
"COc1ccc(CN2C3CC2CN(c2ccc(-c4nc(Nc5cc(C)[nH]n5)c5ccccc5n4)cn2)C3)cc1 [Example 14, 2-(6-(6-(4-methoxybenzyl)-3,6-diaza-bicyclo[3.1.1]heptan-3-yl)pyridin-3-yl)-N-(5-methyl-1H-pyrazol-3-yl)quinazolin-4-amine]",11,33,22,2700,10
"Cc1cc(Nc2nc(-c3ccc(N4CC5CC(C4)N5Cc4ccc(F)nc4)nc3)nc3ccccc23)n[nH]1 [Example 23, 2-(6-(6-((6-fluoropyridin-3-yl)methyl)-3,6-diazabicyclo [3.1.1]heptan-3-yl)pyridin-3-yl)-N-(5-methyl-1H-pyrazol-3-yl)quinazolin-4-amine]",14,57,19,1300,15
"Cc1cc(Nc2nc(-c3ccc(N4CC5CC(C4)N5Cc4ccc(C#N)nc4)nc3)nc3ccccc23)n[nH]1 [Example 9, 5-((3-(5-(4-((5-methyl-1H-py-razol-3-yl)amino)quinazolin-2-yl)pyridin-2-yl)-3,6-diazabicyclo [3.1.1]heptan-6-yl)methyl)pico-linonitrile]",23,62,23,822,30
"COc1ccc(CN2CC3CC(C2)N3c2ccc(-c3nc(Nc4cc(C)[nH]n4)c4ccccc4n3)cn2)cn1 [Example 6, 2-(6-(3-((6-methoxypyridin-3-yl)methyl)-3,6-diazabicyclo [3.1.1]heptan-6-yl)pyridin-3-yl)-N-(5-methyl-1H-pyrazol-3-yl)quinazolin-4-amine]",67,166,70,9220,27
"COc1cnc(CN2C3CC2CN(c2ccc(-c4nc(Nc5cc(C)[nH]n5)c5ccccc5n4)cn2)C3)cn1 [Example 17, 2-(6-(6-((5-methoxypyrazin-2-yl)methyl)-3,6-diazabicyclo [3.1.1]heptan-3-yl)pyridin-3-yl)-N-(5-methyl-1H-pyrazol-3-yl)quinazolin-4-amine]",10,46,7,867,11
"Cc1cc(Nc2nc(-c3ccc(N4CC5CC(C4)N5Cc4ccc(OC(C)C)nc4)nc3)nc3ccccc23)n[nH]1 [Example 15, 2-(6-(6-((6-iso-propoxypyridin-3-yl)methyl)-3,6-diazabicyclo [3.1.1]heptan-3-yl)pyridin-3-yl)-N-(5-methyl-1H-pyrazol-3-yl)quinazolin-4-amine]",24,75,30,3100,40
"COc1ccc(CN2CCN(c3ccc(-c4nc(Nc5cc(C)[nH]n5)c5ccccc5n4)cn3)C[C@H]2C)cn1 [Example 36, (R)-2-(6-(4-((6-methoxypyridin-3-yl)methyl)-3-methylpiperazin-1-yl)pyridin-3-yl)-N-(5-methyl-1H-pyrazol-3-yl)quinazolin-4-amine]",63,259,32,4800,59
"Cc1cc(Nc2nc(-c3ccc(N4CC5CC(C4)N5Cc4ccc(F)cc4)nc3)nc3ccccc23)n[nH]1 [Example 22, 2-(6-(6-(4-fluorobenzyl)-3,6-diazabicyclo [3.1.1]heptan-3-yl)pyridin-3-yl)-N-(5-methyl-1H-pyrazol-3-yl)quinazolin-4-amine]",20,55,6,1220,20
"COc1ccc(CN2C[C@H]3C[C@@H]2CN3c2ccc(-c3nc(Nc4cc(C)[nH]n4)c4ccccc4n3)cn2)cn1 [Example 34, 2-(6-((1R,4R)-5-((6-methoxy-pyridin-3-yl)methyl)-2,5-diazabicyclo [2.2.1]heptan-2-yl)pyridin-3-yl)-N-(5-methyl-1H-pyrazol-3-yl)quinazolin-4-amine]",19,65,20,2590,16
"CCOc1ccc(CN2C3CC2CN(c2ccc(-c4nc(Nc5cc(C)[nH]n5)c5ccccc5n4)cn2)C3)cn1 [Example 24, 2-(6-(6-((6-ethoxypyridin-3-yl)methyl)-3,6-diazabicyclo [3.1.1]heptan-3-yl)pyridin-3-yl)-N-(5-methyl-1H-pyrazol-3-yl)quinazolin-4-amine]",12,53,10,4320,14
"COc1ncc(CN2C3CC2CN(c2ccc(-c4nc(Nc5cc(C)[nH]n5)c5ccccc5n4)cn2)C3)cc1Cl [Example 16, 2-(6-(6-((5-chloro-6-methoxypyridin-3-yl)methyl)-3,6-diazabicyclo [3.1.1]heptan-3-yl)pyridin-3-yl)-N-(5-methyl-1H-pyrazol-3-yl)quinazolin-4-amine]",42,127,39,4010,60
"COc1ccc(CN2CCN(c3ccc(-c4nc(Nc5cc(C)[nH]n5)c5ccccc5n4)cn3)CC2(C)C)cn1 [Example 29, 2-(6-(4-((6-meth-oxypyridin-3-yl)methyl)-3,3-dimethyl-piperazin-1-yl)pyridin-3-yl)-N-(5-methyl-1H-pyrazol-3-yl)quinazolin-4-amine]",164,454,89,6320,123
"COc1ccc(CN2C[C@@H]3C[C@H]2CN3c2ccc(-c3nc(Nc4cc(C)[nH]n4)c4ccccc4n3)cn2)cn1 [Example 31, 2-(6-((1S,4S)-5-((6-methoxy-pyridin-3-yl)methyl)-2,5-diazabicyclo [2.2.1]heptan-2-yl)pyridin-3-yl)-N-(5-methyl-1H-pyrazol-3-yl)quinazolin-4-amine]",18,66,12,1680,25
Cc1ccc(CN2C3CC2CN(c2ccc(-c4nc(Nc5cc(C)[nH]n5)c5ccccc5n4)cn2)C3)cn1 [Example 10],9,39,10,920,10
